# Results taken from patent US20250277208A1, “Method of Peptide Library Construction and Peptides Thereof” (Alcamena Stem Cell Therapeutics, LLC, priority 2024, published 2025).
# Values joined by “and” are separate entries in the source; they are usually repeats but may differ in a detail not shown here. Equal values may be shown once. Read-outs that look alike come from different tables or passages of the source. Square brackets hold non-standard residues; d marks the D form. Ends that are not written are not given here. Phe(4-F) = N[C@@H](Cc1ccc(F)cc1)C(=O)O; Gla = N[C@@H](CC(C(=O)O)C(=O)O)C(=O)O; Cha = N[C@@H](CC1CCCCC1)C(=O)O
# Columns and labels:
# [1] = molecular target: T1, IL-6 (Homo sapiens, UniProt P05231); experiment: Biacore surface plasmon resonance binding of peptides to immobilised IL-6; conditions: for affinity compared with the parent sequence, in words: termini protected
# T1 construct: purchased R&D Systems BT7270B
# Text: Two DNA fragments were amplified from a synthetic fragment of the IL-6R. The 5′ fragment was amplified with forward primer and a mixture of 432 reverse primers, each containing an overhang of 6 codons. The 3′ fragment was amplified with a mixture of 432 forward primers, also containing overhangs of six degenerate codons and the reverse primer. Either the first or the second nucleotide of each codon was replaced with a degenerate base. Following PCR amplification, DNA fragments were phosphorylated and ligated leading to various sequence rearrangements shown at the bottom of the FIG. 3. Four hundred thirty-two forward and reverse oligos with an overhang of 6 codons from the IL-6R binding domain were used for PCR. A degenerate nucleotide was inserted at the first or second position of each codon. When ligated, these sequences generated a library of 1×10^13 different DNA sequences. The library of DNA sequences was taken through eight rounds of mRNA Display generating a peptide library. Eighteen of the most abundant peptides in the peptide library were synthesized in a linear form and tested for binding to IL-6 using Biacore. One of the peptides (#9) (“Peptide 9”) from the peptide library, with the sequence of […] The twelve non-terminal residues represent the PepFusion library-derived DNA sequences, while N-terminal serine and C-terminal glycine come from the flanking linkers and were kept as a precaution, in case linker sequences contributed to peptide interaction with its target.
# Binding reactions were performed in HBS-P/2% DMSO buffer (10 mM Hepes, pH 7.4, 150 mM NaCl, 0.05% P-20, 2% DMSO), which was filtered through […] filters and degassed before use. Biotinylated recombinant human IL-6 (IL-6-Biotin) was bound to the surface of a Biacore SA sensor chip of a Biacore T200 surface plasmon resonance unit as follows. The streptavidin surface of the chip (flow cells 1 and 2) was activated by injecting 20 μl of 1 M NaCl/50 mM NaOH at 20 μl/min, in 3 pulses. Biotinylated Recombinant Human IL6 was diluted with HBS-P buffer and an aliquot of 100 μl (2 micrograms/ml) was injected into flow cell 2 at 5 microliters/min to yield a signal of 1400 response units (RU) (10 microliters were injected). Any remaining activated residues on the streptavidin surface of flow cells 1 and 2 were blocked with 30 microliters 500 nM free Biotin.
# (§1) Affinity scouting assay was performed at a flow rate of 30 microliters/min at 25° C. The analyte (60 microliter aliquots of peptides, at concentrations of 20 μM in HBS-P/2% DMSO buffer) was injected into flow cells 1 and 2 and the association reaction was recorded. The surface was then washed with HBS-P/2% DMSO for 3 min and the dissociation of the analyte from the bound IL6 was followed over time. The surfaces of the flow cells were regenerated with 30 microliters of 10 mM NaOH, followed 50 microliters of HBS-P/2% DMSO buffer.
# as §1, with “Kinetics analysis of binding was performed” for “Affinity scouting assay was performed”, “concentrations of 0, 1.25 μM, 2.5 μM, 5 μM, 10 μM and 20 μM” for “concentrations of 20 μM”, “DMSO buffer. Sensorgrams were analyzed using BIAeveluation 3.2.1 software (Cytiva). Values from the reference flow cell were subtracted to obtain the values for specific binding. Data were globally fitted to the Langmuir model for a 1:1 mass transfer binding.” for “DMSO buffer.”
# [2] = molecular target: T2, Biotinylated recombinant human IL-6 (human, UniProt P05231 30-212, biotinylated (sites not given)); experiment: SPR (Biacore), IL-6 on chip
# T2 construct: In the cell bioassay IL-6 (0.5 nM) was used in solution; also called Interleukin-6; IL-6-Biotin
# [3] = termini protected (acetylated, amidated), read-out: KD
# [4] = Table 2, N terminus acetylated, C terminus amidated, cells printed in μM, read-out: KD (nM) P < 0.05
# [5] = Table 1, N and C termini not protected, cells printed in μM, read-out: KD (nM) P < 0.05
molecule,measurement,setting,value
"Ac-ATIRDLIRMMCHIVG-NH2 [Peptide 51, ATIRDLIRMMCHIVG]",Kd,[1]; [3],~0.1 µM and 0.128 µM
"Ac-ATIRDLIRMMKHIVG-NH2 [Peptide 96, ATIRDLIRMMKHIVG]",Kd,[1]; [4],> 10 µM
"Ac-ATIRDLIRMMKVCVG-NH2 [Peptide 82, ATIRDLIRMMKVCVG]",Kd,[1]; [3],0.108 µM
"Ac-ATIRDLIRMMKVIVG-NH2 [Peptide 83, ATIRDLIRMMKVIVG]",Kd,[1]; [3],0.563 µM
"Ac-ATIRDLLRMMKHIVG-NH2 [Peptide 95, ATIRDLLRMMKHIVG]",Kd,[1]; [4],> 10 µM
"Ac-ATIRDLLRRMKHIVG-NH2 [Peptide 94, ATIRDLLRRMKHIVG]",Kd,[1]; [4],> 10 µM
"Ac-FAFRDLIRMMCHIVG-NH2 [Peptide 58, FAFRDLIRMMCHIVG]",Kd,[1]; [3],~0.1 µM and 0.071 µM
"Ac-FAFRDLIRMMCVIVG-NH2 [Peptide 78, FAFRDLIRMMCVIVG]",Kd,[1]; [3],≤ 1.5 µM
"Ac-FAFRDLIRMMKHIVG-NH2 [Peptide 77, FAFRDLIRMMKHIVG]",Kd,[1]; [3],≤ 1.5 µM and 0.405 µM
"Ac-FAFRDLIRMMKVCVG-NH2 [Peptide 79, FAFRDLIRMMKVCVG]",Kd,[1]; [3],0.247 µM
"Ac-FAFRDLIRMMKVIVG-NH2 [Peptide 76, FAFRDLIRMMKVIVG]",Kd,[1]; [3],≤ 1.5 µM
"Ac-FAFRDLLRMMCHIVG-NH2 [Peptide 75, FAFRDLLRMMCHIVG]","affinity compared with the parent sequence, in words",[1]; Table 2,not improved
"Ac-FSFRDLIRMMCHIVG-NH2 [Peptide 74, FSFRDLIRMMCHIVG]",Kd,[1]; [4],> 10 µM
"Ac-FSFRDLLRMMCHIVG-NH2 [Peptide 80, FSFRDLLRMMCHIVG]","affinity compared with the parent sequence, in words",[1]; Table 2,not improved
"Ac-FSFRDLLRMMKHIVG-NH2 [Peptide 92, FSFRDLLRMMKHIVG]",Kd,[1]; [4],> 10 µM
"Ac-FSFRDLLRRMCHIVG-NH2 [Peptide 72, FSFRDLLRRMCHIVG]",Kd,[1]; [3],0.027 µM
"Ac-FSFRDLLRRMKHIVG-NH2 [Peptide 91, FSFRDLLRRMKHIVG]",Kd,[1]; [4],> 10 µM
"Ac-FSVRDLLRMMKHIVG-NH2 [Peptide 86, FSVRDLLRMMKHIVG]",Kd,[1]; [4],> 10 µM
"Ac-FSVRDLLRRMKHIVG-NH2 [Peptide 85, FSVRDLLRRMKHIVG]",Kd,[1]; [4],> 10 µM
"Ac-SFRDLLRMMKHIVG-NH2 [Peptide 89, SFRDLLRMMKHIVG]",Kd,[1]; [4],> 10 µM
"Ac-SFRDLLRRMKHIVG-NH2 [Peptide 88, SFRDLLRRMKHIVG]",Kd,[1]; [4],> 10 µM
"Ac-SVRDLIRRMCHIVG-NH2 [Peptide 68, SVRDLIRRMCHIVG]","affinity compared with the parent sequence, in words",[1]; Table 2,lowered affinity
"Ac-SVRDLLRMMCHIVG-NH2 [Peptide 69, SVRDLLRMMCHIVG]","affinity compared with the parent sequence, in words",[1]; Table 2,no significant effect
"Ac-SVRDLLRRMCVIVG-NH2 [Peptide 66, SVRDLLRRMCVIVG]","affinity compared with the parent sequence, in words",[1]; Table 2,slightly better affinity
"Ac-SVRDLLRRMKHIVG-NH2 [Peptide 65, SVRDLLRRMKHIVG]","affinity compared with the parent sequence, in words",[1]; Table 2,slightly better affinity
"Ac-TIRDLIRMMKHIVG-NH2 [Peptide 99, TIRDLIRMMKHIVG]",Kd,[1]; [4],> 10 µM
"Ac-TIRDLLRMMKHIVG-NH2 [Peptide 98, TIRDLLRMMKHIVG]",Kd,[1]; [4],> 10 µM
"Ac-TIRDLLRRMCHIVG-NH2 [Peptide 71, TIRDLLRRMCHIVG]","affinity compared with the parent sequence, in words",[1]; Table 2,greatly improved
"Ac-TIRDLLRRMKHIVG-NH2 [Peptide 97, TIRDLLRRMKHIVG]",Kd,[1]; [4],> 10 µM
CVYRDLLRRMCHIVG [Peptide 35],"binding affinity compared with parent peptide 9, in words","[1]; Table 1, termini not protected",completely lost binding affinity
"FD(Cha)DIHLL(4F)LPTEWEK(Cla)KNEE (FD[Cha]DIHLL[Phe(4-F)]LPTEWEK[Gla]KNEE) [PN-2519, reference compound]","binding to IL-6, in words",[1],no activity
"FD(hL)DIHLLELPTEWEKDKNEE [PN-1974(2), peptide PN-1974 with termini protected by acetylation and amidation, reference compound]","binding to IL-6, in words",[1],eliminated its activity
"GNSRDLLRRMCHIVG [Peptide 42, GNSRDLLRRMCHIVG]",Kd,"[1]; KD (nM) P < 0.05, Table 1, N and C termini not protected, cells printed in μM",> 10 µM
"H-ATIRDLLRRMCHIVG-OH [Peptide 38, ATIRDLLRRMCHIVG]","binding affinity compared with parent peptide 9, in words","[1]; Table 1, termini not protected",improved binding affinity
"H-ETIRDLLRRMCHIVG-OH [Peptide 24, ETIRDLLRRMCHIVG]","binding affinity compared with parent peptide 9, in words","[1]; Table 1, termini not protected",improved binding affinity
"H-FAFRDLLRRMCHIVG-OH [Peptide 45, FAFRDLLRRMCHIVG]","binding affinity compared with parent peptide 9, in words","[1]; Table 1, termini not protected",improved binding affinity
"H-SVRDLIRMMCHIVG-OH [Peptide 33, SVRDLIRMMCHIVG]","binding affinity compared with parent peptide 9, in words","[1]; Table 1, termini not protected",improved binding affinity
"H-SVRDLLRRMCHIVG-OH [Peptide 9, SVRDLLRRMCHIVG]",Kd,"[1]; termini not protected, read-out: KD",2.5 µM
"H-SVRDLLRRMKVCVG-OH [Peptide 27, SVRDLLRRMKVCVG]","binding affinity compared with parent peptide 9, in words","[1]; Table 1, termini not protected",improved binding affinity
"INTLLSEINSILLDIISLL [RA07, published control peptide described in Kobayashi et al., Mol Biotechnol 2011, reference compound]","binding to IL-6, in words",[1],did not bind
"LEIRDLLRRMCHIVG [Peptide 26, LEIRDLLRRMCHIVG]",Kd,[1]; [5],> 10 µM
"LGHRDLLRRMCHIVG [Peptide 29, LGHRDLLRRMCHIVG]",Kd,[1]; [5],> 10 µM
"NERRDLLRRMCHIVG [Peptide 41, NERRDLLRRMCHIVG]","binding affinity compared with parent peptide 9, in words","[1]; Table 1, termini not protected",reduced binding affinity
"SNYTLLRRMCHIVG [Peptide 36, SNYTLLRRMCHIVG]",Kd,[1]; [5],> 10 µM
"SVHIHLRRMCHIVG [Peptide 34, SVHIHLRRMCHIVG]",Kd,[1]; [5],> 10 µM
"SVKDLQHGLRHVVG [Peptide C1, control peptide homologous to peptide 9, devoid of any mutations; two unmutated fragments of IL-6R, reference compound]","binding to IL-6, in words",[1],no binding
"SVRDLHKMMCHIVG [Peptide 25, SVRDLHKMMCHIVG]",Kd,[1]; [5],> 10 µM
"SVRDLLHGRCHIVG [Peptide 40, SVRDLLHGRCHIVG]",Kd,[1]; [5],> 10 µM
"SVRDLLNRICHIVG [Peptide 21, SVRDLLNRICHIVG]",Kd,[1]; [5],> 10 µM
"SVRDLLRMFCHIVG [Peptide 23, SVRDLLRMFCHIVG]",Kd,[1]; [5],> 10 µM
SVRDLLRRMCHCVG [Peptide 67],"binding to IL-6, in words",[1],no binding
"SVRDLLRRMCHPRLG [Peptide 46, SVRDLLRRMCHPRLG]",Kd,[1]; [5],> 10 µM
"SVRDLPRIMCHIVG [Peptide 31, SVRDLPRIMCHIVG]",Kd,[1]; [5],> 10 µM
SVRDLQKOMCHIVG (SVRDLQKQMCHIVG; not fully specified) [Peptide 44],"binding affinity compared with parent peptide 9, in words","[1]; Table 1, termini not protected",completely lost binding affinity
"SVRDNFHRMCHIVG [Peptide 30, SVRDNFHRMCHIVG]",Kd,[1]; [5],> 10 µM
"SVRDPHNRMCHIVG [Peptide 22, SVRDPHNRMCHIVG]",Kd,[1]; [5],> 10 µM
"SVRIYLRRMCHIVG [Peptide 20, SVRIYLRRMCHIVG]",Kd,[1]; [5],> 10 µM
"SVSIHLRRMCHIVG [Peptide 32, SVSIHLRRMCHIVG]",Kd,[1]; [5],> 10 µM
Ac-TVRDLLRRMCHIVG-NH2 [Peptide 55],Kd,[2],224 nM
Ac-SFRDLLRRMCHIVG-NH2 [Peptide 63],Kd,[2],162 nM
Ac-AVRDLLRRMCHIVG-NH2 [Peptide 62],Kd,[2],519 nM
Ac-SIRDLLRRMCHIVG-NH2 [Peptide 56],Kd,[2],305 nM
